Laboratory results as given in patent publication EP0726764B1, “MULTILAMELLAR LIPOSOMAL ARACHIDONIC ACID METABOLITE FORMULATIONS” (THE LIPOSOME COMPANY, INC., priority 1993, dated 1995).
Where two headings read alike, the source gives them in different places.

Experiments:
[1] = cited from earlier work
[2] = tested on: leukocyte extravasation from the peripheral vasculature to sites of inflammation; assay: Rat subcutaneous air pouch, fMLP-induced inflammation; assay type: in vivo, Male Sprague-Dawley rats; details: visual examination of post-stimulation air pouch lining
Protocol: • Figure 1. Release of PGE1 from MLVs. The release of prostaglandin E1 (PGE1) from multilamellar vesicles (MLVs) comprising egg phosphatidylcholine (EPC) or dipalmitoyl phosphatidylcholine (DPPC) formed in 50 mM citrate buffer, pH 4.5, and then incubated at room temperature in pH 7.1 buffer for the indicated amount of time, is set forth. X-axis: time (minutes); y-axis: percent PGE1 retained in pelleted liposomes. • Figure 2. Rat Air Pouch Studies. Liposomal PGE1 formulations inhibit the extravasation of leukocytes from the vasculature to the rat air pouch. Subcutaneous air pouches were formed in male Sprague-Dawley rats. fMLP (2.15 µg) was injected directly into the air pouch at time 0, and free or liposomal PGE1 was simultaneously injected intravenously. After six hours, the air pouch exudate was collected and the air pouch total cell population determined. For each treatment group, n=4. […] After six hours, the air pouch exudate was collected, and the air pouch total cell population determined. […] After six hours, the air pouch exudate was collected, and the air pouch total cell population determined. […] After six and 24 hours, the air pouch exudates were collected, and the air pouch total cell populations were determined. […]

adjuvant arthritis = assay: Rat adjuvant arthritis (complete Freund's adjuvant); assay type: in vivo, Male Lewis rats
LPS-induced death = assay: Rat endotoxemia model, LPS-induced mortality; assay type: in vivo, Male Sprague-Dawley rats; details: 50 µg/kg LPS i.v. at time 0, PGE1 40 µg/kg i.v. simultaneously
restenosis = details: intracoronary infusion over a 24-hour period; cited from earlier work
[3] = tested on: acute myocardial infarction; details: slow intracoronary infusion together with intracoronary streptokinase; cited from earlier work
infarct size = details: continuous arterial infusion over a six-hour period, free (non-liposomal); cited from earlier work

Row | SMILES | bioavailability ([1]; free stable prostaglandin analog) [h] | vascular reactivity and number of leukocytes invading the pouch lining [2] | inhibition of arthritis progression, treatment begun 10 days post-adjuvant (adjuvant arthritis; 10 µg/kg beginning at day 10, every second day) | progression of adjuvant arthritis (weight gain, joint edema) (adjuvant arthritis; 10 µg/kg, injections every second day) | subjective scoring of general health and mobility (adjuvant arthritis; 10 µg/kg, scored at day 14) | LPS induced mortality (LPS-induced death) | bioavailability ([1]; free PGE1) [h] | reduction of the rate of restenosis six months after angioplasty versus untreated control group (restenosis) [%] | clinical results versus intracoronary streptokinase alone [3] | reducing the infarct size (infarct size)
1 | CCCCCC(C)(O)/C=C/[C@H]1[C@H](O)CC(=O)[C@@H]1CCCCCCC(=O)O (some centres unmarked) [15-methyl-PGE1] | ≥ 8 |  |  |  |  |  |  |  |  | 
2 | CCCCC[C@H](O)/C=C/[C@H]1[C@H](O)CC(=O)[C@@H]1CCCCCCC(=O)O [free PGE1, prostaglandin E1] |  | reduction in vascular reactivity and a concurrent reduction in the number of leukocytes invading the pouch lining | still receive protection horn disease progression, although the inhibition of arthritis progression was not as profound | attenuated the progression of adjuvant arthritis | maintenance of general health and mobility | increased both the rate and magnitude of LPS induced mortality | < 0.25 | ~50 | positive clinical results | scant effect
3 | CCCCC[C@H](O)/C=C/[C@@H]1[C@H]2C/C(=C/CCCC(=O)O)O[C@H]2C[C@H]1O [PGI2] |  |  |  |  |  |  |  |  |  | scant effect
